Patent US9198915B2, “Methods involving aldose reductase inhibitors” (The Board of Regents of The University of Texas System, priority 2007, dated 2015)

Tested on: Cox-2, iNOS, Bax, Bcl-xl, cyclin D1, E2F2
Experiment: TNF-α- and LPS-induced inflammatory, apoptosis and cell cycle proteins in SAEC (Western blotting)
Assay type: cell-based, human
Conditions: TNF-α 2 nM or LPS 1 μg/ml, 24 h
Procedure: The cells after incubations were lysed in RIPA lysis buffer, and forty micrograms of cytoplasmic proteins were resolved on 10% SDS-PAGE gel. After electrophoresis, the proteins were electro-transferred to a nitrocellulose membrane, blocked with 5% nonfat milk in TBST, and probed with antibodies against COX-2, NOS2, Bax, cyclin D1, E2F2 (1:1,000 dilution) for 2 hr. The blot was then washed, exposed to HRP-conjugated secondary antibodies (1:5,000 dilution) for 1 hr, and the antigen-antibody complex was detected by enhanced chemiluminescence (Amersham Pharmacia Biotech, Piscataway, N.J., USA).

With O=C(O)Cc1nn(Cc2nc3cc(C(F)(F)F)ccc3s2)c(=O)c2ccccc12 [zopolrestat] the “TNF-α- and LPS-induced increase of Cox-2 and iNOS protein expression” value was “significantly prevented this increase”.
